ChEMBL document CHEMBL4376809, “Discovery of a Potent and Selective Fragment-like Inhibitor of Methyllysine Reader Protein Spindlin 1 (SPIN1)” (J Med Chem, 2019)
One block for each compound: values may come before it. Activity calls are given as the source filed them. No cut-off for these calls is given here. Non-standard residues stand in square brackets, D forms with d. Residues, ends and D or L forms follow the SMILES beside them. *: point of attachment. Benzoyl(4-tBu) = CC(C)(C)c1ccc(C(=O)*)cc1; Lys(Et2) = CCN(CC)CCCC[C@H](N)C(=O)O

Experiments:
[1] = target: T1, Chromobox protein homolog 7 (Homo sapiens, UniProt O95931); assay: Inhibition of CBX7 (unknown origin) assessed as dissociation constant by isothermal titration calorimetry
T1 sequence (O95931 whole entry): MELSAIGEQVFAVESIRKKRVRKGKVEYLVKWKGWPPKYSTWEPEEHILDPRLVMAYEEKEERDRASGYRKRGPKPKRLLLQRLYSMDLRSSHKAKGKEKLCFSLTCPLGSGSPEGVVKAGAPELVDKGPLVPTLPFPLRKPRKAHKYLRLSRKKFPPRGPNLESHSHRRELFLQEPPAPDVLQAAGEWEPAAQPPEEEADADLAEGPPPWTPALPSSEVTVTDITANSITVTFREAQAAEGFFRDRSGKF

[2] = target: T2, E3 SUMO-protein ligase CBX4 (Homo sapiens, UniProt O00257); assay: Inhibition of CBX4 (unknown origin) assessed as dissociation constant by isothermal titration calorimetry
T2 sequence (O00257 whole entry): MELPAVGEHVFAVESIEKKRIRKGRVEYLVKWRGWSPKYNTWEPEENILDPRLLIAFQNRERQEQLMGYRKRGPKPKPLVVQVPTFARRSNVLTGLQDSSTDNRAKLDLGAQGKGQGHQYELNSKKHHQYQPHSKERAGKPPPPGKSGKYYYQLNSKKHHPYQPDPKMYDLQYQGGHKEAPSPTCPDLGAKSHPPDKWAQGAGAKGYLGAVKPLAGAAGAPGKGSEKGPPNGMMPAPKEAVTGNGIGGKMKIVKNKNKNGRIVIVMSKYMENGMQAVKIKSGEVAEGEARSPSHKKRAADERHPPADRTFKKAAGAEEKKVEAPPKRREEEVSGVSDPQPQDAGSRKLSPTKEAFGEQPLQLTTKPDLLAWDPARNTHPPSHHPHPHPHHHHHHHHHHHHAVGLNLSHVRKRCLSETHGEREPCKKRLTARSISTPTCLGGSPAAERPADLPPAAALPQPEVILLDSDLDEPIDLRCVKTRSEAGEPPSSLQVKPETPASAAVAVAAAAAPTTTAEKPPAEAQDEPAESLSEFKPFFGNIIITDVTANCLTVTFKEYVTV

[3] = target: Histone-lysine N-methyltransferase EHMT1/EHMT2 (Homo sapiens) (UniProt Q9H9B1+Q96KQ7); assay: Inhibition of human G9a catalytic domain/GLP catalytic domain in presence of SAM assessed as dissociation constant by isothermal calorimetry assay; format: protein assay
Chain of Histone-lysine N-methyltransferase EHMT1/EHMT2 (Homo sapiens) (Q96KQ7 whole entry, looked up, the tested form may be a part): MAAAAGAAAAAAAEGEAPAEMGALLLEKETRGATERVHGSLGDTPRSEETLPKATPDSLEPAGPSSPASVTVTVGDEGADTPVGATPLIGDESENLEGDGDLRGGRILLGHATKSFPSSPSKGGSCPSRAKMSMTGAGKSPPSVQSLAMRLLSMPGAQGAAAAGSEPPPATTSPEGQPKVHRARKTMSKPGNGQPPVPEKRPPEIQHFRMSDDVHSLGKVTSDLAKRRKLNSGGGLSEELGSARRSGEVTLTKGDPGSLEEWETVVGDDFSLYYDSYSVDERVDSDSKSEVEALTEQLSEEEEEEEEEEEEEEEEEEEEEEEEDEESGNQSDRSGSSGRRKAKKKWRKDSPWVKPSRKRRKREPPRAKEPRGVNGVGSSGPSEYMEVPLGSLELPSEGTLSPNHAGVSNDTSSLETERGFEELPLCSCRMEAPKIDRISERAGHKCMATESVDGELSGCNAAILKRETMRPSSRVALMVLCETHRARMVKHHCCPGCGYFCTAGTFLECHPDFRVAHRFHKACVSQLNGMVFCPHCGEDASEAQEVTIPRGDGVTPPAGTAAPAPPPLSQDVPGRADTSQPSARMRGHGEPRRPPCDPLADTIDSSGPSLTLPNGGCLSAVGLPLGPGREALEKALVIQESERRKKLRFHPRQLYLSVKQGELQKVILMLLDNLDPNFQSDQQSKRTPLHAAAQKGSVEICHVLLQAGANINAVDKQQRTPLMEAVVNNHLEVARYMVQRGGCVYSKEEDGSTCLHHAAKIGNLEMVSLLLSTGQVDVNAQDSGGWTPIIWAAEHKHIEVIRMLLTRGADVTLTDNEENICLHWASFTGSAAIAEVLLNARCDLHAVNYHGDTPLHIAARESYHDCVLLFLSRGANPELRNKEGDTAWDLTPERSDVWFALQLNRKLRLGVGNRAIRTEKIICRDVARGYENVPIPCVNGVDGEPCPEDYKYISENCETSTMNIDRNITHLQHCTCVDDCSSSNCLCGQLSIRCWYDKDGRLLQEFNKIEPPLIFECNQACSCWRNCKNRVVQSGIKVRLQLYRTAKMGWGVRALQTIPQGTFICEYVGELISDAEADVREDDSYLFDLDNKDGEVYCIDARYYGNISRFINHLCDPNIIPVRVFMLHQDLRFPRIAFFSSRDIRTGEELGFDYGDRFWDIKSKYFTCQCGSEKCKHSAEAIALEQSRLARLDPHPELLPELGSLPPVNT
Chain of Histone-lysine N-methyltransferase EHMT1/EHMT2 (Homo sapiens) (Q9H9B1 whole entry, looked up, the tested form may be a part): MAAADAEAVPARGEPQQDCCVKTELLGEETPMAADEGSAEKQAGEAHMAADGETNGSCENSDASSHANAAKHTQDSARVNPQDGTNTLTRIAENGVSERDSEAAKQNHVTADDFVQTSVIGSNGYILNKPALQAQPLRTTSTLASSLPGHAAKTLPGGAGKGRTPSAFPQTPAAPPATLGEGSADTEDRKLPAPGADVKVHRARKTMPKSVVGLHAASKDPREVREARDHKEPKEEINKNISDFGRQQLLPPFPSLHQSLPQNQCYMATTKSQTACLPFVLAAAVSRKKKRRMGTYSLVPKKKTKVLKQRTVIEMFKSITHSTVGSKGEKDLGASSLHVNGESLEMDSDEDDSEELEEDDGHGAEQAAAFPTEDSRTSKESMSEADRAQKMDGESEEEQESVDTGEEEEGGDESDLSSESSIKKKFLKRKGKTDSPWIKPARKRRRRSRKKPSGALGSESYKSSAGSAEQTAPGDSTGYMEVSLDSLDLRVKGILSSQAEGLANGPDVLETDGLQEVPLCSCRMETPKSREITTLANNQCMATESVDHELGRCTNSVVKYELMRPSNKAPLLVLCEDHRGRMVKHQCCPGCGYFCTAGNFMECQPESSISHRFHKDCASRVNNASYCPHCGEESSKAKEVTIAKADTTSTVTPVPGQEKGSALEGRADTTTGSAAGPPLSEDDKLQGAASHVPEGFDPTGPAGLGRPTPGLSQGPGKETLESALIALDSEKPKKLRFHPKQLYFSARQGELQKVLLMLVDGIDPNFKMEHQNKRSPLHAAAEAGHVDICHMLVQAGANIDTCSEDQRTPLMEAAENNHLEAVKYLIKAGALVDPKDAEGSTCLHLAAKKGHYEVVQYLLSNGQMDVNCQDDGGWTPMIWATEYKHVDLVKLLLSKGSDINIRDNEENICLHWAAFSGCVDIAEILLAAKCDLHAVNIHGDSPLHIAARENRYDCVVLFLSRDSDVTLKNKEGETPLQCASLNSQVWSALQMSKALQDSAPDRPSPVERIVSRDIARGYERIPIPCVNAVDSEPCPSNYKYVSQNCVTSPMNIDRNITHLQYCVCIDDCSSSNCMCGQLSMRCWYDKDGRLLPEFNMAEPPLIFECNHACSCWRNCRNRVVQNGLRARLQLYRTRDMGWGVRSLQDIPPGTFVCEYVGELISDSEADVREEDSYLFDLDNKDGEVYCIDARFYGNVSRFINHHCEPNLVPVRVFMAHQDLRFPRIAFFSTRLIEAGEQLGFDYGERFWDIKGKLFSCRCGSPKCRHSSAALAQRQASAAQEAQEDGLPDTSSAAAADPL

Spindlin-1 [4] = target: T3, Spindlin-1 (Homo sapiens, UniProt Q9Y657)
T3 sequence (Q9Y657 whole entry): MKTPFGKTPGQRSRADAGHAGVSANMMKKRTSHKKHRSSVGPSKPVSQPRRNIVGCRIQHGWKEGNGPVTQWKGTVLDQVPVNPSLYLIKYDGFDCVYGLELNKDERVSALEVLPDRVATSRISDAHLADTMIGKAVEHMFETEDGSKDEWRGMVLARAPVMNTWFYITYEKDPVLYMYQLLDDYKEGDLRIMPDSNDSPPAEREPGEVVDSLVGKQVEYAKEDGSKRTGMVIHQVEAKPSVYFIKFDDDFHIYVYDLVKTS

Spindlin-1 [5] = target: T3, Spindlin-1; assay: biochemical
Spindlin-1 [6] = target: T3, Spindlin-1; assay: biochemical; remark: listed apart in the source
Spindlin-1 [7] = target: T3, Spindlin-1; remark: listed apart in the source
Spindlin-1 [8] = target: T3, Spindlin-1; remark: listed apart in the source
Spindlin-2B = Spindlin-2B (Homo sapiens, UniProt Q9BPZ2); assay: Inhibition of recombinant human N-terminal His6-tagged SPIN2B (45 to 258 residues) expressed in Escherichia coli BL21 (DE3) cells assessed as dissociation constant by isothermal titration calorimetry
Chain of Spindlin-2B (Q9BPZ2 whole entry, the tested form may be a part): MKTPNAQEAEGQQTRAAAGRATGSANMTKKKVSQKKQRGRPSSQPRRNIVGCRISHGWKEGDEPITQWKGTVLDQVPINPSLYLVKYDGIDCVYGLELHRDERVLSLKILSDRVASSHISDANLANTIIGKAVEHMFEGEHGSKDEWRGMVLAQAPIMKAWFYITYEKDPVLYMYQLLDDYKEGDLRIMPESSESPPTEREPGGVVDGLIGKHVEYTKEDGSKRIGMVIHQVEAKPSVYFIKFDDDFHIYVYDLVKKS

Spindlin-3 = Spindlin-3 (Homo sapiens, UniProt Q5JUX0); assay: Inhibition of recombinant human N-terminal His6-tagged SPIN3 (27 to 258 residues) expressed in Escherichia coli BL21 (DE3) cells assessed as dissociation constant by isothermal titration calorimetry
Chain of Spindlin-3 (Q5JUX0 whole entry, the tested form may be a part): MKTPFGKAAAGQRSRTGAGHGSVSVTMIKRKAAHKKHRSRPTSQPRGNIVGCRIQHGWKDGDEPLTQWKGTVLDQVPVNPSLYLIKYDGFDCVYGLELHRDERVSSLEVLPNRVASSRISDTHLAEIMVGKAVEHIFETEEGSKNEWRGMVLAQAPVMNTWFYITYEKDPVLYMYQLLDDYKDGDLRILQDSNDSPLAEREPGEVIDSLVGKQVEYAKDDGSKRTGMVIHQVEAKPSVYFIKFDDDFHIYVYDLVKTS

Spindlin-4 = target: T4, Spindlin-4 (Homo sapiens, UniProt Q56A73); assay: Inhibition of recombinant human N-terminal His6-tagged SPIN4 (36 to 249 residues) expressed in Escherichia coli BL21 (DE3) cells assessed as dissociation constant by isothermal titration calorimetry
T4 sequence (Q56A73 whole entry): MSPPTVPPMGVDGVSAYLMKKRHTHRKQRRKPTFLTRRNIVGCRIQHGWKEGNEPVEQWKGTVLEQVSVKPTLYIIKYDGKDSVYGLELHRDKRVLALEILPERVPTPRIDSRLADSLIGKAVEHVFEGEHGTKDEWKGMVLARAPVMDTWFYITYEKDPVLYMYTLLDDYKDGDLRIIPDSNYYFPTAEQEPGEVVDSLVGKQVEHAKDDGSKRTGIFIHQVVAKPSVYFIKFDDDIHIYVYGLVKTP

C2C12 = assay: Cytotoxicity against mouse C2C12 cells assessed as reduction in cell viability up to 30 uM incubated for 6 days by resazurin dye based fluorescence assay; conditions: c2c12, 144 h
HEK-293T = assay: Cytotoxicity against human 293T cells assessed as reduction in cell viability up to 30 uM incubated for 6 days by resazurin dye based fluorescence assay; conditions: 144 h
HFF-1 = assay: Cytotoxicity against human HFF1 cells assessed as reduction in cell viability up to 30 uM incubated for 6 days by resazurin dye based fluorescence assay; conditions: hff-1, 144 h
Homo sapiens [9] = species: Homo sapiens; assay: Inhibition of human MLL1/RBBP5/WDR5 trimeric complex up to 50 uM using Biot-H3 (1-25) as substrate and in presence of [3H]-SAM incubated for 1 hr by scintillation proximity assay
Homo sapiens [10] = species: Homo sapiens; assay: Inhibition of human MLL3/ASH2L/RBBP5/WDR5/DPY30 pentameric complex up to 50 uM using Biot-H3 (1-25) as substrate and in presence of [3H]-SAM incubated for 1 hr by scintillation proximity assay
Homo sapiens [11] = species: Homo sapiens; assay: Binding affinity to JARID1 (unknown origin) assessed as induction of thermal shifts at 20 uM measured for 25 mins by SYPRO orange dye thermal shift assay

Kd [1]: 97 nM
Kd [2]: 94 nM
SMILES: CCN(CC)CCCC[C@H](NC(=O)[C@H](CC(C)C)NC(=O)[C@H](C)NC(=O)[C@H](C)NC(=O)c1ccc(C(C)(C)C)cc1)C(=O)N[C@@H](CO)C(=O)OC ({Benzoyl(4-tBu)}-AAL[Lys(Et2)]S-OMe)

inhibition [3]: inactive
Kd (Spindlin-1 [4]; read-out: Kd): 390 nM
IC50 (Spindlin-1 [5]): 741 nM
IC50 (Spindlin-1 [6]): 338 nM
SMILES: COc1c(CN)cc(CN)cc1OCCCN1CCCC1

Kd (Spindlin-1 [4]): Not Active
IC50 (Spindlin-1 [7]): Not Active
IC50 (Spindlin-1 [8]): Not Active
SMILES: COc1c(CN)cc(C(N)=O)cc1OCCCN1Cc2ccccc2C1

Kd (Spindlin-2B): 170 to 1700 nM
inhibition [3]: inactive
Kd (Spindlin-3): 170 to 1700 nM
Kd (Spindlin-4): 170 to 1700 nM
inhibition (Homo sapiens [9]): inactive
inhibition (Homo sapiens [10]): inactive
Activity (Homo sapiens [11]): inactive
SMILES: COc1c(CN)cc(CN)cc1OCCCN1Cc2ccccc2C1
Activity (C2C12): Non-Toxic
Activity (HEK-293T): Non-Toxic
Activity (HFF-1): Non-Toxic
